Measured values: patent US7605175B2, “Inhibitors of cyclin-dependent kinases, compositions and uses related thereto” (GPC Biotech AG, priority 2001, dated 2009)

What was measured:
[1] = tested on: HCT-116 cells; test: Calcein AM viability assay, HCT-116; type: cell-based; settings: Homo sapiens
Method: The potency of Cdk inhibitors, as measured by loss of cellular viability, was determined with the Calcein AM assay (Molecular Probes). Calcein AM is a substrate of intracellular esterases, which is cleaved only in viable cells to generate a fluorescent product that can be quantified with a fluorescent plate reader. The fluorescent signal is proportional to the number of viable cells, and thus loss of signal in response to the exposure of cells to Cdk inhibitors correlates with a loss of viability. This assay can distinguish cell cycle arrest, in which cells may still by viable, from loss of viability and is thus well suited for the evaluation of Cdk inhibitors. A compound that is a potent cytotoxic, may cause significant loss of cell viability in such assay.
Cellular IC50's were determined in the human colorectal carcinoma cell line, HCT-116, and the normal human fibroblast, IMR90. Protein adjusted IC50's were also determined in HCT-116.
HCT-116 or IMR90 cells were recovered from sub-confluent plates by trypsinization and 1,000 or 4,000 cells, respectively, were plated in 24-well dishes and incubated overnight at 37° C., 5% CO2. HCT-116 cells were cultured in RPMI-1640, 10% FCS, and IMR90 cells were cultured in Minimum Essential Medium-alpha, 10% FCS. After overnight incubation to allow adherence, the media was aspirated from each well and replaced with media containing a test compound at a concentration from 0 to 250 nM, spanning a total of 7 doses. The plates were returned to the incubator and cultured for an additional 72 hours (3 days). […] After 72-hours incubation with the test compound, the cells were washed twice with 1×PBS, taking special care to remove all residual buffer.
A 5 μM Calcein AM solution was prepared by dissolving a […] aliquot of Calcein (Molecular Probes catalog # C3100) in 50 μl DMSO. After the Calcein had completely dissolved (10 minutes at room temperature), it was diluted into 10 ml PBS. Calcein/PBS (0.5 ml) was added to each well. The plates were incubated for 75 minutes at 37° C. (protected from light) and the fluorescent signal was read on a fluorescent plate reader (excitation 485/20 and emission 530/25).

[2] = biological target: T1, Cdk2/cyclin E (Homo sapiens, UniProt P24941); test: Biochemical kinase assay Cdk2/cyclin E; settings: Table 6
T1 construct: made in house; host or cells: Sf9 insect cells
Procedure, shortened: (§1)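 Sf9-expressed Cdk/cyclin heterodimers phosphorylate GST-Rb (residues 379–928, 40 μg) with 50 μM ATP plus [γ-33P]ATP, pH 7.5, 10% DMSO, 15 min at 30 °C. Compounds 1 nM–10 μM. 33P captured on glutathione-sepharose and scintillation-counted; activity relative to DMSO control after EDTA-background subtraction.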

[3] = biological target: T2, Cdk4/cyclin D1 (Homo sapiens, UniProt P11802); test: Biochemical kinase assay Cdk4/cyclin D1; settings: Table 6
T2 construct: made in house; host or cells: Sf9 insect cells
T2 sequence (P11802 whole entry, species assumed): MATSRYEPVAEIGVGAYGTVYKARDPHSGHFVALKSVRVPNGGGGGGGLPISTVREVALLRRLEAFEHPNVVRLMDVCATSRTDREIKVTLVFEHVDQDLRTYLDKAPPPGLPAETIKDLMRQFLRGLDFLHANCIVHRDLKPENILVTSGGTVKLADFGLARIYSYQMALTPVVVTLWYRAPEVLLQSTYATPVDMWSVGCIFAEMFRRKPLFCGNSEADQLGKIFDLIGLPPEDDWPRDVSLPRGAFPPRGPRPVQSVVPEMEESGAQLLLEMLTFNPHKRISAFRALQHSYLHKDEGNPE
T2 sequence (P24385 whole entry partner, species assumed): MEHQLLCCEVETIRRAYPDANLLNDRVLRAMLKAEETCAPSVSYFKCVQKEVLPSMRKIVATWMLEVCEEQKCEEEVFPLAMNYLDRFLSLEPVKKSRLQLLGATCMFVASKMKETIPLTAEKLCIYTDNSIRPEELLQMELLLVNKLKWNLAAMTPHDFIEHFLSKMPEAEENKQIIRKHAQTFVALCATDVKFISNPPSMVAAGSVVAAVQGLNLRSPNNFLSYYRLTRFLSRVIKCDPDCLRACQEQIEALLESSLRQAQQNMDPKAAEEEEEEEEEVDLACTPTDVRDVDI
Procedure, shortened: as §1

[4] = biological target: T3, Cdc2/cyclin B (Homo sapiens, UniProt P06493); test: Biochemical kinase assay Cdc2/cyclin B; settings: Table 6
T3 construct: purchased
T3 sequence (P06493 whole entry, species assumed): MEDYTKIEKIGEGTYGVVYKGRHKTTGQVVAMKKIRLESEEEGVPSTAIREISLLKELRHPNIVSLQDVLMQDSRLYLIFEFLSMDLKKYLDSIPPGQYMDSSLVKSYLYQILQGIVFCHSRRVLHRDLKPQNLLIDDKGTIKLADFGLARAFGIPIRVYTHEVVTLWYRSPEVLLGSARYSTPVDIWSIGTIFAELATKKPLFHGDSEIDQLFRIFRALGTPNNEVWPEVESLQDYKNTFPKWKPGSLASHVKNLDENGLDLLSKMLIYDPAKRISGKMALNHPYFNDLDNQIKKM
T3 sequence (P14635 whole entry partner, species assumed): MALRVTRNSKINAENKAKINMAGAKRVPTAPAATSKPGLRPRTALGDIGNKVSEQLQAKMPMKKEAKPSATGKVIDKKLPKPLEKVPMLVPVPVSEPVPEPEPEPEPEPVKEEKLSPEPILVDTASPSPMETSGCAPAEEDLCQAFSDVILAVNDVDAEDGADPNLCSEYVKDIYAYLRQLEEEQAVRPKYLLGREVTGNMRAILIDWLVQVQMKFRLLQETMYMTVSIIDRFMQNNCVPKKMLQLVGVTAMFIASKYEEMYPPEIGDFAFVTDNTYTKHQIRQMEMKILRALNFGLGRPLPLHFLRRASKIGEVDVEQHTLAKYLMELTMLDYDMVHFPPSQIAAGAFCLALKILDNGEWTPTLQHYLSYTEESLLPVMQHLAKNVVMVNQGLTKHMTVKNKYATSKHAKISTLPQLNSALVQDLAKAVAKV
Procedure, shortened: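 Radiometric TCA-precipitation assay measuring [γ-32P]ATP incorporation into Histone H1 (20 μg); 50 μM ATP, 10% DMSO, Tris pH 7.5 with MgCl2 and DTT. Compounds at 1 nM to 10 μM; reaction 20 min at 30 °C, stopped with EDTA/ATP. Activity relative to DMSO control after subtracting 50 mM EDTA background.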

[5] = tested on: HIV-1 ROJO; test: Antiviral activity in PBMCs infected with HIV-1 ROJO (reverse transcriptase); type: cell-based; settings: for IC50: Human immunodeficiency virus 1, PBMC, 168 h, read-out: IC50: 50% inhibition of virus replication measured by reverse transcriptase levels in the supernatant, HIV-1 ROJO, 7 days post infection
Method: (§2) The activity of the certain compounds of the invention was evaluated in peripheral blood mononuclear cells (PBMCs) infected with the low passage, clinical isolate HIV-1 ROJO to generate a measure of the efficacy of these compounds in acutely infected cells. The use of these normal human cells allows an estimate of the therapeutic index of these compounds to be made. Fresh PBMCs from two donors were pooled and stimulated with PHA-P for 48-72 hours. The cells were then cultured in the presence of IL-2 to maintain the cell division initiated by the mitogenic signal. The virus was added at a multiplicity of infection of 0.1. The cells were cultured for 7 days post infection prior to the evaluation of efficacy. Viral replication was measured by the level of reverse transcriptase activity in the supernatant and cytotoxicity was measured with the MTS assay.

[6] = Cytotoxicity in PBMCs (MTS assay); type: cell-based, human; settings: human
Method: as §2

[7] = tested on: HCT-116 cells; test: BrdU incorporation assay; type: cell-based; settings: Homo sapiens, read-out: Brd U, concentration that inhibits BrdU incorporation by 50%
Method: This method measured the percentage of cells that incorporated the nucleotide analog, BrdU, into newly synthesized DNA as cells progressed through the S phase of the cell cycle. The inhibition of BrdU incorporation was used as a measure of a Cdk inhibitor's effect on S phase progression and DNA replication.
3 sets of HCT-116 cells (100,000 cells/set) were plated in T25 flasks and incubated with a test compound as above. Analysis was done at 24, 48, and 72 hours. BrdU was added to each T-25 flask from a stock of 10 mg/ml to a final concentration of 10 μM and the cells were incubated for an additional 16-18 hours at 37° C. The cells were then prepared for flow cytometric analysis according to manufacturer's protocol (BrdU Flow kit, BD-Pharmingen catalogue #2354KK) as follows:
Cells were harvested (adherent and floating) from the T25 flasks directly into Falcon 12×75 flow cytometric tubes as above followed by fixation and permeabilization with the addition of 100 μl of Cytofix/Cytoperm buffer (30 minutes, room temperature). The cells were then washed with 1 ml of Perm Wash buffer and the cell pellets were resuspended in 100 μl Cytoperm Plus buffer and incubated on ice for 10 minutes. The cells were then washed again with 1 ml of Perm Wash buffer and the fixation was repeated in 100 μl of Cytofix/Cyto Perm buffer for 10 minutes at room temperature. The cells were then washed with 1 ml of Perm Wash buffer. The cells were next treated for one hour at 37° C. with 100 μl DNase to expose incorporated BrdU followed by another wash step with 1 ml of Perm Wash buffer. […] Cells were protected from light and incubated at room temperature for 20-30 minutes. Following the incubation, the cells were washed with 1 ml of Perm Wash buffer, resuspended in 300 μl of 2% FBS in PBS, and analyzed on the flow cytometer. Results are presented in Table 2 as the concentration of compound (μM) that inhibits of BrdU incorporation by 50%.

[8] = tested on: arrested HCT-116 cells; test: Arrested cell assay, arrested HCT-116 tumor cells; type: cell-based; settings: Homo sapiens, serum-starved arrested cells, 72 hours, read-out: Arrested cell assay HCT IC50
Method: (§3) Cyclin-dependent kinase (Cdk) activity is required to promote the progression of cells through distinct phases of the cell division cycle. The proliferation of normal, non-transformed, cells in culture requires the presence of growth factors, the removal of which, through serum deprivation, leads to a loss of Cdk activity and consequent exit from the cell cycle as cells enter the quiescent phase, G0.
HCT-116 cells were plated in triplicate for each compound concentration to be tested in RPMI 1640 media containing 10% fetal calf serum at a density of either 200 or 2,000 cells per well in 24 well dishes, and incubated overnight at 37° C., 5% CO2. The media from the plate containing 2,000 cells per well was removed, cells were washed once with serum free media and 1 ml of serum free media was placed on cells. The plates containing cells both in the presence and absence of serum were incubated for 6 additional days.
(§4) The cells are incubated in the presence of the compounds for 72 hours (3 days) at 37° C. […] Cycling and arrested HCT-116 cells as well as cycling IMR90 cells were exposed to a panel of 6 doses ranging from 5 to 250 nM. For arrested normal cells, the range of doses was increased to 50 nM to 25 μM, to compensate for the expected decrease in activity.
(§5) The effect of 72 hours of compound exposure on cellular viability was assessed in the Calcein AM assay. Calcein AM is a fluorescent substrate of intracellular esterases that are only active in viable cells. Cleavage of the substrate thus provides a measure of viability, which is proportional to cell number.
(§6) A Calcein AM stock solution was prepared by dissolving a 50 μg aliquot (Molecular Probes catalogue # C3100) in 50 μl DMSO. The tube was incubated at room temperature for approximately 10 minutes to ensure that the Calcein had dissolved completely. The calcein was diluted into 10 ml PBS to prepare the final solution, which was protected from light.
(§7) The media was aspirated off the cells, which were then washed twice with 1 ml PBS to remove the PBS completely from cells by aspiration. 0.5 ml of the Calcein/PBS solution was transferred by pipette into each well. The plates were incubated at 37° C. for 75 minutes (protected from light) and read on a fluorescent plate reader (excitation 485/20 and emission 530/25).

[9] = tested on: arrested IMR90 cells; test: Arrested cell assay, arrested IMR90 normal cells; type: cell-based; settings: Homo sapiens, IMR-90; serum-starved arrested cells, 72 hours; read-out: Arrested cell assay IMR90 IC50
Method: as §3
IMR90 cells were plated in triplicate for each compound concentration to be tested in MEM-A media containing 10% fetal calf serum at a density of either 2,000 or 20,000 cells per well in 24-well dishes and incubated overnight at 37° C., 5% CO2. The media was removed from the 20,000 cell-per-well dish, cells were washed once with serum-free media, and serum-free media was placed on cells. The plates containing cells both in the presence and absence of serum were incubated for 3 additional days.
as §4, §5, §6, §7

[10] = HCT-116, non-protein adjusted, Table 6, read-out: HCT-116 viability IC50
[11] = HCT-116, 72 h, Calcein AM, 72 hours, read-out: HCT-116 IC50 Viability
[12] = HCT-116, plus 1 mg/ml alpha acidic glycoprotein and 45 mg/ml human serum albumin, read-out: HCT-116 IC50 Protein adjusted

Row | Structure (SMILES) | IC50 [1, 10] [nM] | IC50 [2] [nM] | TI: TC50/IC50 [5] | IC50 [5] [nM] | CC50 at 7 days [6] [nM] | IC50 ([7]; HCT-116, 24 h) [nM] | IC50 [1, 11] [nM] | IC50 [8] [nM] | IC50 [9] [nM] | IC50 ([7]; HCT-116, 48 h) [nM] | also measured
1 | CC(C)c1nn(-c2c(Cl)cccc2Cl)c2nc(Cc3ccc(OCCN4CCOCC4)c(O)c3)[nH]c(=O)c12 [Compound A32] | < 100 | < 100 | >10 | < 10 | < 100 |  |  |  |  |  | IC50 [3]: < 100 nM; IC50 [4]: < 1000 nM
2 | CC(C)c1nn(-c2c(Cl)cc(Cl)cc2Cl)c2nc(Cc3ccc(OCCO)cc3)[nH]c(=O)c12 [Compound A61] |  | < 100 | >10 | < 10 | < 100 |  |  |  |  |  | IC50 [3]: < 1000 nM; IC50 [4]: < 100 nM
3 | CC(C)c1nn(-c2c(Cl)cc(Cl)cc2Cl)c2nc(Cc3ccc(OCC(C)(C)O)cc3)[nH]c(=O)c12 [Compound A64] | < 100 | < 100 | >10 | < 10 | < 100 |  |  |  |  |  | IC50 [3]: < 1000 nM; IC50 [4]: < 100 nM
4 | CC(C)c1nn(-c2c(Cl)cccc2Cl)c2nc(Cc3ccc(CN4CCCC4)c(O)c3)[nH]c(=O)c12.Cl [Compound C3] | < 100 | < 100 | >10 | < 10 | < 100 |  |  |  |  |  | 
5 | CC(C)c1nn(-c2c(Cl)cc(Cl)cc2Cl)c2nc(Cc3ccc(CNC(CO)CO)n3C)[nH]c(=O)c12.Cl [Compound C4] | < 100 | < 10 | >1 | < 100 | < 100 |  |  |  |  |  | 
6 | O=C(Nc1cccc2c1C(=O)c1c-2n[nH]c1-c1ccc(OCCN2CCCC2)cc1)NN1CCOCC1 [Compound I] |  |  |  |  |  | < 10 | < 100 | < 100 | > 1000 |  | 
7 | CN1CCN(NC(=O)Nc2cccc3c2C(=O)c2c-3n[nH]c2-c2ccc(OCCN3CCC[C@H]3CO)cc2)CC1 [Compound M] |  |  |  |  |  |  | < 100 | < 100 | > 1000 | < 100 | 
8 | CC(C)c1nn(-c2c(Cl)cc(Cl)cc2Cl)c2nc(Cc3ccc(NS(=O)(=O)CCCN4CCOCC4)cc3)[nH]c(=O)c12 [D] |  |  |  |  |  |  |  | < 10 | > 1000 | < 100 | IC50 ([7]; HCT-116, 72 h): < 100 nM
9 | CCCN(CCOc1ccc(-c2[nH]nc3c2C(=O)c2c(NC(=O)NN4CCOCC4)cccc2-3)cc1)CC1CC1 [G] |  |  |  |  |  | < 10 | < 100 | < 100 | > 100 |  | 
10 | O=C(Nc1cccc2c1C(=O)c1c-2n[nH]c1-c1ccc(OCCN(CCO)CCO)cc1)NN1CCOCC1 [H] |  |  |  |  |  |  |  | < 100 | > 1000 | < 1000 | IC50 [1, 12]: < 1000 nM
11 | CC(C)N1CCN(Cc2cc(-c3[nH]nc4c3C(=O)c3c(NC(=O)NN5CCOCC5)cccc3-4)ccc2O)CC1 [K] |  |  |  |  |  | < 100 | < 100 | < 10 | > 1000 | < 100 | 
12 | CN1CCN(NC(=O)Nc2cccc3c2C(=O)c2c-3n[nH]c2-c2ccc(OCCN3CC[C@H](O)C3)cc2)CC1 [O] |  |  |  |  |  | < 100 |  | < 100 | > 100 |  | IC50 [1, 12]: < 1000 nM
13 | CN1CCN(NC(=O)Nc2cccc3c2C(=O)c2c-3n[nH]c2-c2ccc(OCCN3CCOCC3)cc2)CC1 [Q] |  |  |  |  |  |  |  | < 100 | > 100 | < 100 | 
